In US20220048873A1, “PESTICIDALLY ACTIVE C[…] AMIDE DERIVATIVES” (SYNGENTA CROP PROTECTION AG, priority 2018, published 2022):

Assays:
Type in all cases: in vivo
[1] = tested on: Plutella xylostella (Diamond Back Moth); assay: Plutella xylostella feeding/contact activity on treated artificial diet; details: 192 h, application rate of 200 ppm, eggs, 8 days after infestation
Protocol: 24-well microtiter plates with artificial diet were treated with aqueous test solutions prepared from 10,000 ppm DMSO stock solutions by pipetting. After drying, Plutella eggs were pipetted through a plastic stencil onto a gel blotting paper and the plate was closed with it. The samples were assessed for mortality 8 days after infestation.

[2] = tested on: Spodoptera littoralis (Egyptian Cotton Leaf Worm); assay: Spodoptera littoralis control on sprayed cotton leaf discs; details: foliar, 72 h, application rate of 200 ppm, L1 larvae, 3 days after infestation, read-out: control (at least one of mortality, anti-feedant effect, growth inhibition)
Protocol: Cotton leaf discs were placed onto agar in 24-well microtiter plates and sprayed with aqueous test solutions prepared from 10′000 ppm DMSO stock solutions. After drying the leaf discs were infested with five L1 larvae. The samples were assessed for mortality, anti-feeding effect, and growth inhibition in comparison to untreated samples 3 days after infestation. Control of Spodoptera littoralis by a test sample is given when at least one of the categories mortality, anti-feedant effect, and growth inhibition is higher than the untreated sample.

[3] = tested on: Euschistus heros (Neotropical Brown Stink Bug); assay: Euschistus heros feeding/contact activity on sprayed soybean leaves; details: 120 h, application rate of 200 ppm, N2 nymphs, 5 days after infestation
Protocol: Soybean leaves on agar in 24-well microtiter plates were sprayed with aqueous test solutions prepared from 10,000 ppm DMSO stock solutions. After drying the leaves were infested with N2 nymphs. The samples were assessed for mortality 5 days after infestation.

COC(=O)OCN(CC1(C#N)CC1)C(=O)c1ccc(C2=NO[C@@](c3cc(Cl)c(F)c(Cl)c3)(C(F)(F)F)C2)cc1C [A1, [(1-cyanocyclopropyl)methyl-[4-[(5S)-5-(3,5-dichloro-4-fluoro-phenyl)-5-(trifluoromethyl)-4H-isoxazol-3-yl]-2-methyl-benzoyl]amino]methyl Methyl Carbonate]
≥ 80%: mortality at 200 ppm [1] | percent control (mortality, anti-feedant effect or growth inhibition) at 200 ppm [2] | mortality at 200 ppm [3]

CCOC(=O)OCN(CC1(C#N)CC1)C(=O)c1ccc(C2=NO[C@@](c3cc(Cl)c(F)c(Cl)c3)(C(F)(F)F)C2)cc1C [A2, [(1-cyanocyclopropyl)methyl-[4-[(5S)-5-(3,5-dichloro-4-fluoro-phenyl)-5-(trifluoromethyl)-4H-isoxazol-3-yl]-2-methyl-benzoyl]amino]methyl ethyl carbonate]
≥ 80%: mortality at 200 ppm [1] | percent control (mortality, anti-feedant effect or growth inhibition) at 200 ppm [2] | mortality at 200 ppm [3]
